Patent US10457677B2 (priority 2015, dated 2019)

molecular target: purified human recombinant ATM (ataxia telangiectasia mutated), full length (Homo sapiens (Human), UniProt Q13315); experiment: ATM kinase assay - determination of ATM inhibition (IC50 ATM), TR-FRET; assay type: biochemical; conditions: 10 μM ATP, substrate p53
Protocol: ATM kinase assay—determination of ATM inhibition (IC50 ATM):
The IC50 value was determined with the aid of a biochemical ATM kinase assay. The assay consists of two steps: the enzymatic reaction and the detection step. Firstly, ATM (ataxia telangiectasia mutated) protein and the test substance are incubated at different concentrations with addition of substrate protein p53 and ATP. ATM mediates the phosphorylation of p53 at several positions, including at amino acid S15. The amount of phosphorylated p53 is determined with the aid of specific antibodies and the TR-FRET technique. The enzymatic ATM assay is carried out as TR-FRET (HTRF™, Cisbio Bioassays) based 384-well assay. In the first step, purified human recombinant ATM (human ATM, full length, GenBank ID NM_000051, expressed in a mammal cell line) is incubated in assay buffer for 15 minutes with the ATM inhibitor in various concentrations and without test substance as negative or neutral control. The assay buffer comprises 25 mM HEPES pH 8.0, 10 mM Mg(CH3COO)2, 1 mM MnCl2, 0,1% BSA and 0,01% Brij® 35, 5 mM dithiothreitol (DTT). […] In the second step, purified human recombinant cmyc-labelled p53 (human p53, full length, GenBank ID BC003596, expressed in Sf21 insect cells) and ATP are added, and the reaction mixture is incubated at 22° C. for 30-35 minutes. The pharmacologically relevant assay volume is 5 μl. […] The enzymatic reaction is stopped by addition of EDTA. […] After incubation, usually for 2 hours (between 1.5 and 15h), for signal development, the plates are analysed in a plate reader (EnVision, PerkinElmer) using TRF mode (and with laser excitation). […] The measurement data were processed by means of Genedata Screener software.

purified human recombinant ATM (ataxia telangiectasia mutated), full length, sequence (Q13315 whole entry, change not shown): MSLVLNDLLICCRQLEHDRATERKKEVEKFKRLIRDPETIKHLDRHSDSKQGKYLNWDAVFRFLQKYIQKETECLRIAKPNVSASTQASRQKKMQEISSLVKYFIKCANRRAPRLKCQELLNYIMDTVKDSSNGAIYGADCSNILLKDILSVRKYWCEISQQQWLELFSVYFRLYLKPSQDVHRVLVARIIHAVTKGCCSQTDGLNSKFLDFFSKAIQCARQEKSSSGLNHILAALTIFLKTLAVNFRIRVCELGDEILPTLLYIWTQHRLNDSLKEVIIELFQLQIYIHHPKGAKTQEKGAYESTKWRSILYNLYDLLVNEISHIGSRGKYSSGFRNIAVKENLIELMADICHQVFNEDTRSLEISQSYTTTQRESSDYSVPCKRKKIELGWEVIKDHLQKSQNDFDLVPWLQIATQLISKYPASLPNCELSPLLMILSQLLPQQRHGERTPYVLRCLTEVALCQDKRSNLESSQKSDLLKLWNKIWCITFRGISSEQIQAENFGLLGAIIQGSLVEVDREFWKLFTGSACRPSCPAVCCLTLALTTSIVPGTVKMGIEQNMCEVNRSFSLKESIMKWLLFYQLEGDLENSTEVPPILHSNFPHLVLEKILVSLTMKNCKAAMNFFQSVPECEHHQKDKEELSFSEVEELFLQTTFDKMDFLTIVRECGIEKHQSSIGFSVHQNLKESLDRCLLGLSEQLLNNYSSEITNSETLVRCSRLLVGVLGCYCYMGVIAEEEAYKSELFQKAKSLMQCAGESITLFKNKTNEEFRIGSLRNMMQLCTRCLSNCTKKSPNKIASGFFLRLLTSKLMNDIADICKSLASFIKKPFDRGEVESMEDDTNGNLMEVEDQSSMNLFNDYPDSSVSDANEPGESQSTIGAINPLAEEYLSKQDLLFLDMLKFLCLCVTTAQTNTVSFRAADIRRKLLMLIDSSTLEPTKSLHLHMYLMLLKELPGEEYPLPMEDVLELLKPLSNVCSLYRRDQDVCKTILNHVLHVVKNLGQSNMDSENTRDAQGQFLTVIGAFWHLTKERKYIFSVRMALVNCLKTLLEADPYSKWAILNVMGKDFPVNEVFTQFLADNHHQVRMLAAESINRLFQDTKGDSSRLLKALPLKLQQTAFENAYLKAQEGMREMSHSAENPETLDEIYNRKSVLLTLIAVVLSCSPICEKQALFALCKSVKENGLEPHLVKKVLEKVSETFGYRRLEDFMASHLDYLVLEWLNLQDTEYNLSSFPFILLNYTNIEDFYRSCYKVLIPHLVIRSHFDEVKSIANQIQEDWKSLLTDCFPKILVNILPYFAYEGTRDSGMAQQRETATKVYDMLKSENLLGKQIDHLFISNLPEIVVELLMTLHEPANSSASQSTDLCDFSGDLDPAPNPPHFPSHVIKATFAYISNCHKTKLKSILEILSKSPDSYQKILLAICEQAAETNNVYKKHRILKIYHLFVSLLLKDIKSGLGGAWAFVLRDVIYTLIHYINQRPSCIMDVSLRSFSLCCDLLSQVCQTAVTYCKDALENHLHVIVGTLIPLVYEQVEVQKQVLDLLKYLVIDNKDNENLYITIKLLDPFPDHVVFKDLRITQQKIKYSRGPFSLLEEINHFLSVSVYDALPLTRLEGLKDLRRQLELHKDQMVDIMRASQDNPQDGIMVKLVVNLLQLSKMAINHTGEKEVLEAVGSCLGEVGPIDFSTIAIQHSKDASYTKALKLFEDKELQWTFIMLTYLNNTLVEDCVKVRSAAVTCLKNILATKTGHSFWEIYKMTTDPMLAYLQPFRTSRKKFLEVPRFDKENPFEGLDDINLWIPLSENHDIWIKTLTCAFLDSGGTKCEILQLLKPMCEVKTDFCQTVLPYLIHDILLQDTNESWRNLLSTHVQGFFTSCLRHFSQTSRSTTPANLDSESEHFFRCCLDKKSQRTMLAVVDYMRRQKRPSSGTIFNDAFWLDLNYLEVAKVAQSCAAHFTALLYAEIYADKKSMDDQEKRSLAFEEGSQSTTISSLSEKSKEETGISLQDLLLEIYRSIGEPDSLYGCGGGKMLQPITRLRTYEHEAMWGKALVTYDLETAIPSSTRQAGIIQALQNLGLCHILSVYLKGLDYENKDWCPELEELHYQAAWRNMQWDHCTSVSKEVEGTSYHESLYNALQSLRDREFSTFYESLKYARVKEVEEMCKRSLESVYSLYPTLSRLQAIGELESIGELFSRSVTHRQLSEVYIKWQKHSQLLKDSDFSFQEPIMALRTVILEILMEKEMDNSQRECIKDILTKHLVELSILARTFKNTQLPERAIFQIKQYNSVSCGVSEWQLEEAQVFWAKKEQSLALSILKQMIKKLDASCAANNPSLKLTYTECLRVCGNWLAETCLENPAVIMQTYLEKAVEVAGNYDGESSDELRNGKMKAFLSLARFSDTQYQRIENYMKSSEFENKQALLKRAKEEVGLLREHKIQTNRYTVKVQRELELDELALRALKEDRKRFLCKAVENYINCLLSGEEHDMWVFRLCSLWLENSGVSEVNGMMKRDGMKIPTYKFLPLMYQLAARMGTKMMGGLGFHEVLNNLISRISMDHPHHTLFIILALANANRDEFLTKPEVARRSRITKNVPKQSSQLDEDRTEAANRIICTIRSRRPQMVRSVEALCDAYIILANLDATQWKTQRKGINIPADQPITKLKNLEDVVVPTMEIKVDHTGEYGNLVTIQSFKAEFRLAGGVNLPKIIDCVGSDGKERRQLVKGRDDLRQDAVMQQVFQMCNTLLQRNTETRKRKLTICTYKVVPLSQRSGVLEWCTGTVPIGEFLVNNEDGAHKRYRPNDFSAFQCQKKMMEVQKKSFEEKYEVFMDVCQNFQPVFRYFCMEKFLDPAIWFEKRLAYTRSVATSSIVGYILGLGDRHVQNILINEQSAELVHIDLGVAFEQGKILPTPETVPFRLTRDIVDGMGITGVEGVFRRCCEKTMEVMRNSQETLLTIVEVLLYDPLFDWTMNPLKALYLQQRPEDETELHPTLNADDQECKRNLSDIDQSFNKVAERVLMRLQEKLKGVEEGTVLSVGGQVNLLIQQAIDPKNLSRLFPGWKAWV

Row | SMILES | IC50 [nM]
1 | COc1cc2ncc3c(c2cc1-c1cn(C)nn1)n(-c1cn(C)nc1C)c(=O)n3C [Compound Example 42, 1-(1,3-Dimethyl-1H-pyrazol-4-yl)-7-methoxy-3-methyl-8-(1-methyl-1H-1,2,3-triazol-4-yl)-1,3-dihydroimidazo-[4,5-c]quinolin-2-one] | < 10
2 | COc1cc2ncc3c(c2cc1-c1cnn(C)c1)n(-c1ccc(C#N)cn1)c(=O)n3C [Compound Example 48, 6-[7-Methoxy-3-methyl-8-(1-methyl-1H-pyrazol-4-yl)-2-oxo-2,3-dihydroimidazo-[4,5-c]quinolin-1-yl]-nicotinonitrile] | < 10
3 | COc1cc2ncc3c(c2cc1-c1cnn(C)c1)n(-c1ccc(F)cn1)c(=O)n3C [Compound Example 50, 1-(5-Fluoropyridin-2-yl)-7-methoxy-3-methyl-8-(1-methyl-1H-pyrazol-4-yl)-1,3-dihydroimidazo[4,5-c]-quinolin-2-one] | < 10
4 | COc1cc2ncc3c(c2cc1-c1cnn(C)c1)n(-c1ncccn1)c(=O)n3C [Compound Example 52, 7-Methoxy-3-methyl-8-(1-methyl-1H-pyrazol-4-yl)-1-pyrimidin-2-yl-1,3-dihydro-imidazo[4,5-c]quinolin-2-one] | < 10
5 | COc1cc2ncc3c(c2cc1-c1cnn(C)c1)n(-c1ccccn1)c(=O)n3C [Compound Example 56, 7-Methoxy-3-methyl-8-(1-methyl-1H-pyrazol-4-yl)-1-pyridin-2-yl-1,3-dihydro-imidazo[4,5-c]quinolin-2-one] | < 10
6 | COc1cc2ncc3c(c2cc1-c1cn(C)nn1)n(-c1c(C)cncc1F)c(=O)n3C [compound 63, 1-(3-Fluoro-5-methylpyridin-4-yl)-7-methoxy-3-methyl-8-(1-methyl-1H-1,2,3-triazol-4-yl)-1,3-dihydroimidazo-[4,5-c] quinolin-2-one] | < 10
7 | COc1cc2ncc3c(c2cc1-c1cn(C)nn1)n(-c1ccncc1F)c(=O)n3C [compound 64, 1-(3-Fluoropyridin-4-yl)-7-methoxy-3-methyl-8-(1-methyl-1H-1,2,3-triazol-4-yl)-1,3-dihydroimidazo-[4,5-c] quinolin-2-one] | < 10
8 | COc1cc2ncc3c(c2cc1-c1cc(N)n[nH]1)n(-c1ncccc1F)c(=O)n3C [compound 65, 8-(3-Amino-1H-pyrazol-5-yl)-1-(3-fluoro-2-pyridyl)-7-methoxy-3-methyl-imidazo-[4,5-c]quinolin-2-one] | < 1
9 | COc1cc2ncc3c(c2cc1-c1cnn(C)c1)n(-c1ccc2ccccc2n1)c(=O)n3C [compound 68, 7-Methoxy-3-methyl-8-(1-methyl-1H-pyrazol-4-yl)-1-quinolin-2-yl-1,3-dihydro-imidazo[4,5-c]quinolin-2-one] | < 10
10 | COc1cc2ncc3c(c2cc1-c1cnn(C)c1)n(-c1ccc2cc[nH]c2n1)c(=O)n3C [compound 69, 7-Methoxy-3-methyl-8-(1-methyl-1H-pyrazol-4-yl)-1-(1H-pyrrolo[2,3-b]pyridin-6-yl)1,3-dihydroimidazo-[4,5-c]quinolin-2-one] | < 1
11 | COc1cc2ncc3c(c2cc1-c1cnn(C)n1)n(-c1ncc(F)cc1F)c(=O)n3C [compound 101, 1-(3,5-Difluoropyridin-2-yl)-7-methoxy-3-methyl-8-(2-methyl-2H-1,2,3-triazol-4-yl)-1,3-dihydroimidazo-[4,5-c] quinolin-2-one] | < 50
12 | COc1cc2ncc3c(c2cc1-c1cnn(C)n1)n(-c1cn(C)nc1C)c(=O)n3C [compound 102, 1-(1,3-Dimethyl-1H-pyrazol-4-yl)-7-methoxy-3-methyl-8-(2-methyl-2H-1,2,3-triazol-4-yl)-1,3-dihydroimidazo-[4,5-c]quinolin-2-one] | < 50
13 | CCn1cc(-c2cc3c(cc2OC)ncc2c3n(-c3ccncc3OC)c(=O)n2C)cn1 [compound 104, 8-(1-Ethyl-1H-pyrazol-4-yl)-7-methoxy-1-(3-methoxy-pyridin-4-yl)-3-methyl-1,3-dihydroimidazo[4,5-c] quinolin-2-one] | < 10
14 | COc1cnc(-n2c(=O)n(C)c3cnc4cc(OC)c(-c5cn(C)nc5C)cc4c32)c(F)c1 [compound 106, 8-(1,3-Dimethyl-1H-pyrazol-4-yl)-1-(3-fluoro-5-methoxypyridin-2-yl)-7-methoxy-3-methyl-1,3-dihydroimidazo[4,5-c]-quinolin-2-one] | < 1
15 | COc1cc2ncc3[nH]c(=O)n(-c4ncc(F)cc4F)c3c2cc1-c1cnn(C)c1 [compound 107, 1-(3,5-Difluoropyridin-2-yl)-7-methoxy-8-(1-methyl-1H-pyrazol-4-yl)-1,3-dihydro-imidazo[4,5-c]quinolin-2-one] | < 1
16 | COc1cnc(-n2c(=O)n(C)c3cnc4cc(OC)c(-c5ccn[nH]5)cc4c32)c(F)c1 [compound 109, 1-(3-Fluoro-5-methoxy-pyridin-2-yl)-7-methoxy-3-methyl-8-(2H-pyrazol-3-yl)-1,3-dihydroimidazo[4,5-c] quinolin-2-one] | < 10
17 | CCn1cc(-c2cc3c(cc2OC)ncc2c3n(-c3ncc(OC)cc3F)c(=O)n2C)cn1 [compound 111, 8-(1-Ethyl-1H-pyrazol-4-yl)-1-(3-fluoro-5-methoxy-pyridin-2-yl)-7-methoxy-3-methyl-1,3-dihydroimidazo-[4,5-c] quinolin-2-one] | < 10
18 | CCc1cncc(F)c1-n1c(=O)n(C)c2cnc3cc(OC)c(-c4cnn(C)n4)cc3c21 [compound 112, 1-(3-Ethyl-5-fluoropyridin-4-yl)-7-methoxy-3-methyl-8-(2-methyl-2H-1,2,3-triazol-4-yl)-1,3-dihydroimidazo-[4,5-c] quinolin-2-one] | < 10
19 | CCOc1cnc(-n2c(=O)n(C)c3cnc4cc(OC)c(-c5cnn(C)c5)cc4c32)c(F)c1 [compound 113, 1-(5-Ethoxy-3-fluoropyridin-2-yl)-7-methoxy-3-methyl-8-(1-methyl-1H-pyrazol-4-yl)-1,3-dihydroimidazo[4,5-c]-quinolin-2-one] | < 1
20 | COc1cnc(-n2c(=O)[nH]c3cnc4cc(OC)c(-c5cnn(C)c5)cc4c32)c(F)c1 [compound 115, 1-(3-Fluoro-5-methoxy-pyridin-2-yl)-7-methoxy-8-(1-methyl-1H-pyrazol-4-yl)-1,3-dihydroimidazo[4,5-c]-quinolin-2-one] | < 10
21 | COc1cc2ncc3[nH]c(=O)n(-c4c(F)cncc4OC)c3c2cc1-c1cnn(C)c1 [compound 116, 1-(3-Fluoro-5-methoxy-pyridin-4-yl)-7-methoxy-8-(1-methyl-1H-pyrazol-4-yl)-1,3-dihydroimidazo[4,5-c]-quinolin-2-one] | < 10
22 | COc1cc2ncc3c(c2cc1-c1cnn(C)c1)n(-c1ncc(Cl)cc1F)c(=O)n3C [compound 119, 1-(5-Chloro-3-fluoropyridin-2-yl)-7-methoxy-3-methyl-8-(1-methyl-1H-pyrazol-4-yl)-1,3-dihydroimidazo[4,5-c]-quinolin-2-one] | < 1
23 | COc1cc2ncc3c(c2cc1-c1ccn[nH]1)n(-c1c(F)cncc1OC)c(=O)n3C [compound 124, 1-(3-Fluoro-5-methoxy-pyridin-4-yl)-7-methoxy-3-methyl-8-(2H-pyrazol-3-yl)-1,3-dihydroimidazo[4,5-c] quinolin-2-one] | < 50
